row,SMILES,logP
1,N#CCc1ccc(Cl)cc1,2.47
2,CC(=O)Oc1ccccc1C(=O)O,1.19
3,Cc1ccc(O)c(O)c1,1.37
4,CC(=O)[C@@]1(O)CC[C@H]2[C@@H]3C[C@H](C)C4=CC(=O)C=C[C@]4(C)[C@@]3(F)[C@@H](O)C[C@@]21C,2
5,COC(=O)Cc1ccsc1,1.46
6,O=[N+]([O-])c1ccc(C=Cc2nccs2)o1,1.97
7,Cc1cccc(C=C(C(N)=O)C(N)=O)c1,0.4
8,N#CC(C#N)=NNc1ccccc1,2.67
9,Cc1c(CC(=O)O)sc2ccc(Cl)cc12,3.92
10,NS(=O)(=O)Cc1ccccc1,0.13
11,c1cc2c3c(cccc3c1)CC2,3.92
12,COP(=S)(OC)SCn1nnc2ccccc2c1=O,2.75
13,O=c1[nH]cnc2n[nH]nc12,-1.97
14,CC(C)(C)C(=O)C(C)(C)C,3
15,Nc1nc2cc(Cl)ccc2[nH]1,1.88
16,O=C(O)Cc1ccc2ccccc2c1,2.81
17,COc1ccc(O)cc1,1.58
18,CON(C)C(=O)Nc1ccc(Cl)c(Cl)c1,3.2
19,OCCO,-1.36
20,Oc1cccc(Br)c1,2.63
21,Oc1cc(Cl)cc(Cl)c1,3.62
22,Cc1cc(Cl)c(N=C2NCCN2)c(Cl)c1,1.92

row,SMILES,logP
1,OC(c1ccc(Cl)cc1)(c1ccc(Cl)cc1)C1CC1,5.5
2,CNC(=O)Oc1cccc(C(C)C)c1,2.63
3,FC(F)(F)c1nc2ccc(Br)cc2[nH]1,3.57
4,O=c1cc(-c2ccccc2)o[nH]1,2.55
5,Cc1cc[nH]c(=O)n1,-1.45
6,O=C(O)CSCc1ccccc1,2.1
7,CN(C)C(=O)OCc1ccc(OCc2ccccc2)cc1,3.27
8,CC(C)Cl,1.9
9,CCCC(=NOCC)C1C(=O)CC2(CCC(CC)CC2)OC1=O (configuration not stated),4.48
10,CCC(Oc1ccccc1)C(=O)N[C@@H]1C(=O)N2[C@@H]1SC(C)(C)[C@@H]2C(=O)O (some centres not stated),2.65
11,CC(Cl)[N+](=O)[O-] (configuration not stated),1.1
12,O=C1C=CC(=NO)C=C1,1.08
13,ClC(Cl)(Cl)C(c1ccccc1)c1ccccc1,4.87
14,C=C=C,1.45
15,OCc1cccnc1,-0.02
16,CCN1CCN(CC)C1=S,1.13
17,CCCCCC(=O)Nc1ccccc1,3.28
18,BrC(Br)(Br)Br,3.42
19,CCCCCc1ccc(N)cc1,3.39
20,C=C(C)C(=O)OC,1.38
21,CNC1CC2CCC1c1ccccc12 (configuration not stated),2.68
22,CN(C)C(=O)Nc1ccc([N+](=O)[O-])cc1,1.51

row,SMILES,logP
1,NC(=O)CCCc1ccncc1,-0.09
2,O=[N+]([O-])c1cc(Cl)c(O)c(Cl)c1Cl,3.93
3,O=C(O)CCCCN1C(=O)C=CC1=O,0.6
4,C/N=C(\N)NC#N,-0.77
5,Nc1ccc(Cl)c(Cl)c1,2.69
6,OCCNCCO,-1.43
7,FCCl,0.51
8,CCOC(=O)C(=Cc1ccc(OC)cc1)C(C)=O,2.46
9,NC(=S)c1cccs1,1.34
10,CC(=O)c1cccc(OC(=O)N(C)C)c1,1.18
11,Nc1cccc(S(N)(=O)=O)c1,-0.38
12,ClC(Cl)C(c1ccccc1)c1ccccc1,4.51
13,C1CCc2nnnn2CC1,0.14
14,CCc1cccc(C)c1N(C(=O)CCl)C(C)COC (configuration not stated),3.13
15,C[C@@H](O)c1ccccc1,1.42
16,CSSC,1.77
17,CC#CC#CC,2.24
18,COc1cnc(NS(=O)(=O)c2ccc(N)cc2)nc1,0.41
19,CCOC(=O)C(=Cc1ccc(O)c(OC)c1)C(=O)OCC,2.89
20,C1=Cc2ccc3c4c(ccc(c24)C1)-c1ccccc1-3,5.78
21,CCCCNCc1cccnc1,1.34
22,OCCc1cccnc1,0.12

row,SMILES,logP
1,CCOc1ccc([N+](=O)[O-])cc1,2.53
2,c1ccc(-c2cc(-c3ccccc3)c(NCCN3CCOCC3)nn2)cc1,3.38
3,Nc1ccc(C(=O)Oc2cccc(Br)c2)c(O)c1,3.84
4,OC[C@H]1O[C@@H](Oc2ccccc2)[C@H](O)[C@@H](O)[C@@H]1O,-0.75
5,CC(C)C(C)C,3.42
6,Cn1cnc2c1c(=O)[nH]c(=O)n2C,-0.78
7,O=[N+]([O-])c1cccc(CO)c1,1.21
8,Cn1c(N)nc2cc(Cl)c(Cl)cc21,2.98
9,NC(=O)c1ccoc1,0.09
10,O=[N+]([O-])c1ccc(OCC(O)CNCC(O)COc2ccccc2)cc1 (configuration not stated),2.62
11,N#CC(C(=O)NC(CO)C(O)c1ccc([N+](=O)[O-])cc1)c1ccccc1 (configuration not stated),1.47
12,CCOC(=O)n1cnc(CC(NC(=O)C2CCC(=O)N2)C(=O)N2CCCC2C(N)=O)c1 (configuration not stated),-1.3
13,CCC1(c2ccccc2)C(=O)NC(=O)NC1=O,1.47
14,Cc1ccc(CC(=O)O)cc1,1.86
15,Cn1c(N)nc2cc(C#N)ccc21,1.11
16,CC(C)CN(N=O)C(N)=O,1.04
17,S=C=Nc1ccc(Br)cc1,4.03
18,O=C(CCNNC(=O)c1ccncc1)NCc1ccccc1,0.87
19,CC1(C)CCC(C)(C)O1,2.06
20,ClC(Cl)(Cl)c1ccc(C(Cl)(Cl)Cl)cc1,4.62
21,NC1CC1,0.07

# From the OPERA property sets (Mansouri et al. 2018)
